pIC50: −log10 of the molar value. Counter-ions that a name gives are not always drawn.
Assays:
Type in all cases: cell-based
[1] = test system: neonatal rat ventricular myocytes (NRVMs); assay: Inhibition of fetal calf serum induced cardiomyocyte hypertrophy in vitro; conditions: serum-starved NRVMs, 5% FCS, myocyte size 48 hours after treatment, concentration reducing FCS-induced hypertrophy by 50%; for pIC50: Rattus norvegicus, Ventricular myocyte
Experimental: To evaluate the ability of the test compounds to inhibit cardio myocyte hypertrophy in vitro, serum-starved neonatal rat ventricular myocytes (NRVMs) were exposed to medium with 5% Fetal Calf Serum (FCS), a powerful activator of myoctye growth (hypertrophy) and treated with one of the compounds at doses ranging from 0.2-10 μM or with the vehicle (dimethyl sulfoxide (DMSO)). Control cells received fresh media without serum. The myocyte size was determined 48 hours after treatment. The results in Table 7 show the concentrations of the test compounds required to reduce the FCS-induced hypertrophy in the NRVMs by 50% (IC50 μM).

[2] = biological target: MEF2D/p300 protein-protein interactions (Homo sapiens (Human), UniProt Q14814); assay: Mammalian two-hybrid assay, inhibition of MEF2D and P300 protein interactions (luciferase reporter in HeLa cells); conditions: HeLa cells co-transfected with GAL4-MEF2D, P300-VP16 and Gal4Luc
From the text: Detection of MEF2D and P300 interactions. The same system that was used in Example 19 is used in here to detect MEF2D and P300 interactions. In this assay, two separate DNA constructs were made with MEF2D fused with the GAL4 DNA binding domain (GAL4-MEF2D) and P300 fused with the viral transactivator VP-16 ([…]). Human epithelial carcinoma cells (HeLa) were co-transfected with the two DNA constructs (GAL4-MEF2D and P300-VP16) and a reporter plasmid (Gal4Luc). […] MEF2D and P300 protein interactions were detected as a result of the GAL4-MEF2D and P300-VP16 protein complex binding a DNA promoter on the reporter plasmid (Gal4Luc) and driving cellular expression of a luciferase gene. The measured luciferase protein signal was proportional to the amount of MEF2D and P300 protein interactions occurring with the cell.
The relative activity and IC50 calculations. The IC50 concentrations were calculated in the same manner as described for Example 19.

[3] = biological target: MEF2D/HDAC4 protein-protein interactions (Homo sapiens (Human), UniProt Q14814); assay: Mammalian two-hybrid assay, inhibition of MEF2D and HDAC4 protein interactions (luciferase reporter in HeLa cells); conditions: HeLa cells co-transfected with GAL4-MEF2D, HDAC4-VP16 and Gal4Luc; overnight treatment; luciferase normalized to Renilla
From the text: Detection of MEF2D and HDAC4 interactions. In this mammalian two-hybrid assay, HDAC4 and MEF2D proteins were used. […] Human epithelial carcinoma cells (HeLa) were co-transfected with the two DNA constructs (GAL4-MEF2D and HDAC4-VP16) and a reporter plasmid (Gal4Luc). […] MEF2D and HDAC4 protein interactions were detected as a result of the GAL4-MEF2D and HDAC4-VP16 protein complex binding a DNA promoter on the reporter plasmid (Gal4Luc) and driving cellular expression of a luciferase gene. The measured luciferase protein signal was proportional to the amount of MEF2D and HDAC4 protein interactions occurring with the cell.
The HDAC4 fragment lacked the catalytic domain so that the deacetylase activity was excluded from the assay.
Detection of inhibition of MEF2D and HDAC4 interactions. Next, the assay was used to test whether the compounds could disrupt the interactions between MEF2D and HDAC4. After co-expressing the GAL4-MEF2D and HDAC4-VP16 DNA constructs and reporter plasmid, the HeLa cells were treated with a test compound (10 μM) overnight. Cells transfected with the positive control GAL4VP16 fusion construct and reporter plasmid were also treated with the test compound (10 μM) overnight. As another control, DMSO was added (but kept below 0.2% V/V) to cells transfected with the positive GAL4VP16 fusion construct or the GAL4-MEF2D and HDAC4-VP16 DNA constructs. A luciferase assay was performed as described above according to the manufacturer's protocol (Promega). The luciferase response was normalized against the Renilla Luciferase as an internal control.
The relative activity and IC50 calculations. […] The relative activity, I, was the ratio of former to later, i.e. X/Y, expressed in percentile. […] The IC50 was the concentration of the compounds when X/Y equals 50.

MEF2D/p300 protein-protein interactions, sequence (Q14814 whole entry, species assumed, the tested form may be a part): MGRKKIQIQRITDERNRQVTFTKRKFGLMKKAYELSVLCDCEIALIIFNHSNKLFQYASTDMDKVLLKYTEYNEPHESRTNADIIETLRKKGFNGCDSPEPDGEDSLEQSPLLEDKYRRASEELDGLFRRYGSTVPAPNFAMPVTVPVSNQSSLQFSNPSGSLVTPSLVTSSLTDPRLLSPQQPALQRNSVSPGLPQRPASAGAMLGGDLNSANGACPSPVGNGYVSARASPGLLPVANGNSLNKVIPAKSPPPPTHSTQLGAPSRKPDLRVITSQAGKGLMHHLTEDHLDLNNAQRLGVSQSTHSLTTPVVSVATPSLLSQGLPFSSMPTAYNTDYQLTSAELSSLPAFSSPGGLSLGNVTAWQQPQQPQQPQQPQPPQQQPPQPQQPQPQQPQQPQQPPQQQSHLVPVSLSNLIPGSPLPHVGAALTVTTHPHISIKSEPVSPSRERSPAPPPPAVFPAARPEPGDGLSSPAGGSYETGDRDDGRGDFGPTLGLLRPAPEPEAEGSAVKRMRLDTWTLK
MEF2D/HDAC4 protein-protein interactions, sequence (Q14814 whole entry, species assumed, the tested form may be a part): as above

## COC(=O)NC(CCCCC(=O)Nc1ccccc1N)C(=O)Nc1cccc(OCC(F)(F)F)c1 (stereo not drawn) [ST102, methyl (7-((2-aminophenyl)amino)-1,7-dioxo-1-((3-(2,2,2-trifluoroethoxy)phenyl)amino)heptan-2-yl)carbamate hydrochloride]
[1]
  pIC50: 6.15
[2]
  pIC50: 5.92
[3]
  pIC50: 6.03

## CCOC(=O)N[C@@H](CCCCC(=O)Nc1ccccc1N)C(=O)Nc1cccc(Br)c1 [ST104, (S)-ethyl (7-((2-aminophenyl)amino)-1-((3-bromophenyl)amino)-1,7-dioxoheptan-2-yl)carbamate]
[1]
  pIC50: 5.54
[2]
  pIC50: 6.42
[3]
  pIC50: 6.33

## COC(=O)NC(CCCCC(=O)Nc1ccccc1N)C(=O)Nc1nc(-c2ccncc2)cs1 (stereo not drawn) [ST116, methyl (7-((2-aminophenyl)amino)-1,7-dioxo-1-((4-(pyridin-4-yl)thiazol-2-yl)amino)heptan-2-yl)carbamate]
[1]
  pIC50: 2.36
[2]
  pIC50: 6.57
[3]
  pIC50: 6.24

## COC(=O)NC(CCCCC(=O)Nc1ccccc1N)C(=O)Nc1cccc2cccnc12 (stereo not drawn) [ST119, methyl (7-((2-aminophenyl)amino)-1,7-dioxo-1-(quinolin-8-ylamino)heptan-2-yl)carbamate]
[1]
  pIC50: 7.10
[2]
  pIC50: 6.85
[3]
  pIC50: 6.41

## CCOC(=O)NC(CCCCC(=O)NCc1cncc(OCC)c1)C(=O)NCc1cncc(OCC)c1 (stereo not drawn) [ST129]
[1]
  IC50, inhibition of cardiomyocyte hypertrophy in vitro: no inhibition
[2]
  pIC50: 4.70
[3]
  pIC50: 4.70

Source: US11230524B2, “Myocyte enhancer factor 2 (MEF2) modulators” (STANDARD LLC, priority 2017, dated 2022)
